Values joined by “and” are separate entries in the source; they are usually repeats but may differ in a detail not shown here. Identical values can stand only once. Like-named read-outs stand apart in the source and are kept apart here.
Experiment: Mouse oral single-dose pharmacokinetic study with Compound EB
Type: in vivo
Conditions: 100 mg/kg single oral gavage
Description: Mouse Oral Single-Dose Pharmacokinetic Study with Compound EB
Determination of the Plasma profile of Compound EB following single oral gavage administration to male mice:
Test compounds were suspended in 1% HPMC using a tissue homogenizer to minimize particles and maximize uniformity of the suspension and stored at 4° C. The formulations was thoroughly mixed just prior to administration. A dose of 100 mg/kg of Compound EB or vehicle (1% HPMC) was administered to male mice by single oral gavage. Mice were placed in urine collectors after dosing for 5 hours, and the total urine output for 5 hours was collected. Samples were frozen at −80° C. until analyzed using LC/MS-MS.
At 0, 0.5, 1, 2, 4, 6, 8 and 24 hours post-dose time points, blood samples (0.4 mL) were collected by orbital sinus bleeds in K3EDTA tubes. The blood samples were centrifuged within 30 minutes of collection under refrigeration (2-8° C.) for 7 minutes at 6000 rpm. Following centrifugation, the plasma were harvested into a single tube for each animal at each time point and immediately frozen at −80° C. until analyzed using LC/MS-MS. Data was subjected to pharmacokinetic analyses using WinNonlin Standard (v2.1, Pharsight Corporation) and Microsoft EXCEL.
1. Mice received single oral gavage of Compound EB, 100 mg/kg, and plasma was collected at certain times.
2. Plasma was stored at −80° C. until the day of analysis.
3. Samples were thawed on 37° C. bath for 5 min and vortexed at top speed for 10 sec.
4. Mouse plasma, 0.1 mL was mixed with 0.2 mL Acetonitrile, vortexed 1 min, spun down 14000 rpm, 17000 g, at 4° C., for 25 min.
5. Supernatants were filtered through 0.45 micron, 4 mm, PTFE membrane syringe filter (Phenomenex # AF0-3102-52), and 13 microL were injected and resolved on Luna 3 micron, 100 A pore, C8(2), 150×3 mm, reverse phase column (Phenomenex#00F-4248-YO, SN#259151-7) in 50 min linear gradient from 40% to 69% of (0.1% Formic Acid, 89.9% Acetonitrile, 10% Methanol) at 0.25 mL/min, 100 bar, 37° C. column temperature, method 406975M1, Sequence 1029-08A, Agilent 1100 LC-MS.
All samples were run in duplicate, 210 nm and 230 nm Absorbances, Negative and Positive ionization spectrograms recorded.
Step 1. Plasma from “Vehicle” animals (pooled), 0.095 mL, was mixed with 0.005 mL 20× stock of Compound EB in Methanol to make 500 microM, 250 microM, 125 microM, . . . , concentrations of Compound EB in plasma.
For example: 95 microL plasma+5 microL of 10 mM Compound EB in methanol=0.1 mL plasma with 500 microM Compound EB.
Step 2. Samples from step 1 were vortexed for 10 sec at top speed.
Step 3. 0.2 mL of acetonitrile was added to all samples from Step 2, and all vials were vortexed at top speed for 1 min.
Step 4. All samples from step 3 were spun down 14000 rpm, 17000 g, at 4° C., for 25 min.
Step 5. Supernatants were filtered through 0.45 micron, 4 mm, PTFE membrane syringe filter (Phenomenex # AF0-3102-52), 13 microL were injected and resolved on Luna 3 micron, 100 A pore, C8(2), 150×3 mm, reverse phase column

Cc1cccc(C)c1COc1cccc(-c2nnn[nH]2)c1 [Compound EB, 5-(3-(2,6-Dimethylbenzyloxy)phenyl)-1H-tetrazole]
Detection in mouse plasma (in words) (LC-MS): readily detected
Compound EB concentr. in plasma, individual animals (male mice, bleed time 0 HR): 0 µg/mL
Compound EB concentr. in plasma, individual animals (male mice, bleed time 0.5 HR): 207.5 µg/mL and 134.2 µg/mL
Compound EB concentr. in plasma, individual animals (male mice, bleed time 1 HR): 139.7 µg/mL and 157.6 µg/mL
Compound EB concentr. in plasma, individual animals (male mice, bleed time 2 HR): 139.9 µg/mL and 187.6 µg/mL and 82.4 µg/mL
Compound EB concentr. in plasma, individual animals (male mice, bleed time 4 HR): 74.9 µg/mL and 92.1 µg/mL and 39.6 µg/mL
Compound EB concentr. in plasma, individual animals (male mice, bleed time 6 HR): 79.9 µg/mL and 48 µg/mL
Compound EB concentr. in plasma, individual animals (male mice, bleed time 8 HR): 18.2 µg/mL and 10.7 µg/mL and 0 µg/mL
Compound EB concentr. in plasma, individual animals (male mice, bleed time 24 HR): 0 µg/mL
AUC0-24 (male mice, plasma): AUC0-24: 796 μg/mL
concentration at 0 h (male, mouse, plasma, po, 100 mg/kg, male mice, 0 hr, read-out: Compound EB concentration in plasma, average): 0 ng/mL
concentration at 0.5 h (male, mouse, plasma, po, 100 mg/kg, male mice, 0.5 hr, read-out: Compound EB concentration in plasma, average): 183 µg/mL
concentration at 1 h (male, mouse, plasma, po, 100 mg/kg, male mice, 1 hr, read-out: Compound EB concentration in plasma, average): 169 µg/mL
concentration at 2 h (male, mouse, plasma, po, 100 mg/kg, male mice, 2 hr): 137 µg/mL
concentration at 4 h (male, mouse, plasma, po, 100 mg/kg, male mice, 4 hr): 69 µg/mL
concentration at 6 h (male, mouse, plasma, po, 100 mg/kg, male mice, 6 hr, read-out: Compound EB concentration in plasma, average): 62 µg/mL
concentration at 8 h (male, mouse, plasma, po, 100 mg/kg, male mice, 8 hr): 10 µg/mL
concentration at 24 h (male, mouse, plasma, po, 100 mg/kg, male mice, 24 hr, read-out: Compound EB concentration in plasma, average): 3 µg/mL
concentration at 0 h (male, mouse, plasma, po, 100 mg/kg, male mice, bleed time 0 HR, read-out: Compound EB concentr. in plasma, individual animals): 0 ng/mL
concentration at 0.5 h (male, mouse, plasma, po, 100 mg/kg, male mice, bleed time 0.5 HR, read-out: Compound EB concentr. in plasma, individual animals): 206 µg/mL
concentration at 1 h (male, mouse, plasma, po, 100 mg/kg, male mice, bleed time 1 HR, read-out: Compound EB concentr. in plasma, individual animals): 210 µg/mL
concentration at 6 h (male, mouse, plasma, po, 100 mg/kg, male mice, bleed time 6 HR, read-out: Compound EB concentr. in plasma, individual animals): 58.7 µg/mL
concentration at 24 h (male, mouse, plasma, po, 100 mg/kg, male mice, bleed time 24 HR, read-out: Compound EB concentr. in plasma, individual animals): 0 µg/mL
Cmax (mouse, male mice, plasma): 210 µg/mL

— patent US8889724B2, “Tetrazole compounds for reducing uric acid” (Wellstat Therapeutics Corporation, priority 2008, dated 2014)
